Source: US8471005B2 (Cephalon, Inc., priority 2008, dated 2013)
pIC50: −log10 of the molar value. Like-named read-outs stand apart in the source and are kept apart here.

Assays:
ALK = target: T1, ALK (Homo sapiens, UniProt Q9UM73); test: ALK Kinase Assay (ELISA/TRF, PLC-γ substrate); type: biochemical; settings: read-out: ALK Potency
T1 construct: host or cells: baculovirus expression system
Summary of the method: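 First, plates are coated with substrate (phospholipase C-γ, 10 μg/mL, TBS). Next, 30 ng/ml ALK initiates phosphorylation for 15 min at 37° C. Then Eu-N1 PT66 antibody is added for detection, and a nonlinear dose-response fit of percent inhibition yields IC50.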

JAK2 = target: T2, JAK2 (Homo sapiens, UniProt O60674); test: Recombinant Human JAK2 Kinase Assay (TRF); type: biochemical; settings: read-out: JAK2 Potency
T2 construct: host or cells: baculovirus expression system
Summary of the method: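 Baculovirus-expressed JAK2 (15 ng/ml) phosphorylated a biotinylated 15-mer peptide captured on Neutravidin, in 20 mM HEPES pH 7.2, 0.2 μM ATP, 1 mM MnCl2, 0.1% BSA, 2.5% DMSO final, 20 min at room temperature. Phosphoproduct detected by time-resolved fluorescence with Eu-N1-labelled PY100 antibody.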

[1] = ALK kinase inhibition, 1 μM ATP
[2] = JAK2 kinase inhibition, 0.2 μM ATP

T1 sequence (Q9UM73 19-1620): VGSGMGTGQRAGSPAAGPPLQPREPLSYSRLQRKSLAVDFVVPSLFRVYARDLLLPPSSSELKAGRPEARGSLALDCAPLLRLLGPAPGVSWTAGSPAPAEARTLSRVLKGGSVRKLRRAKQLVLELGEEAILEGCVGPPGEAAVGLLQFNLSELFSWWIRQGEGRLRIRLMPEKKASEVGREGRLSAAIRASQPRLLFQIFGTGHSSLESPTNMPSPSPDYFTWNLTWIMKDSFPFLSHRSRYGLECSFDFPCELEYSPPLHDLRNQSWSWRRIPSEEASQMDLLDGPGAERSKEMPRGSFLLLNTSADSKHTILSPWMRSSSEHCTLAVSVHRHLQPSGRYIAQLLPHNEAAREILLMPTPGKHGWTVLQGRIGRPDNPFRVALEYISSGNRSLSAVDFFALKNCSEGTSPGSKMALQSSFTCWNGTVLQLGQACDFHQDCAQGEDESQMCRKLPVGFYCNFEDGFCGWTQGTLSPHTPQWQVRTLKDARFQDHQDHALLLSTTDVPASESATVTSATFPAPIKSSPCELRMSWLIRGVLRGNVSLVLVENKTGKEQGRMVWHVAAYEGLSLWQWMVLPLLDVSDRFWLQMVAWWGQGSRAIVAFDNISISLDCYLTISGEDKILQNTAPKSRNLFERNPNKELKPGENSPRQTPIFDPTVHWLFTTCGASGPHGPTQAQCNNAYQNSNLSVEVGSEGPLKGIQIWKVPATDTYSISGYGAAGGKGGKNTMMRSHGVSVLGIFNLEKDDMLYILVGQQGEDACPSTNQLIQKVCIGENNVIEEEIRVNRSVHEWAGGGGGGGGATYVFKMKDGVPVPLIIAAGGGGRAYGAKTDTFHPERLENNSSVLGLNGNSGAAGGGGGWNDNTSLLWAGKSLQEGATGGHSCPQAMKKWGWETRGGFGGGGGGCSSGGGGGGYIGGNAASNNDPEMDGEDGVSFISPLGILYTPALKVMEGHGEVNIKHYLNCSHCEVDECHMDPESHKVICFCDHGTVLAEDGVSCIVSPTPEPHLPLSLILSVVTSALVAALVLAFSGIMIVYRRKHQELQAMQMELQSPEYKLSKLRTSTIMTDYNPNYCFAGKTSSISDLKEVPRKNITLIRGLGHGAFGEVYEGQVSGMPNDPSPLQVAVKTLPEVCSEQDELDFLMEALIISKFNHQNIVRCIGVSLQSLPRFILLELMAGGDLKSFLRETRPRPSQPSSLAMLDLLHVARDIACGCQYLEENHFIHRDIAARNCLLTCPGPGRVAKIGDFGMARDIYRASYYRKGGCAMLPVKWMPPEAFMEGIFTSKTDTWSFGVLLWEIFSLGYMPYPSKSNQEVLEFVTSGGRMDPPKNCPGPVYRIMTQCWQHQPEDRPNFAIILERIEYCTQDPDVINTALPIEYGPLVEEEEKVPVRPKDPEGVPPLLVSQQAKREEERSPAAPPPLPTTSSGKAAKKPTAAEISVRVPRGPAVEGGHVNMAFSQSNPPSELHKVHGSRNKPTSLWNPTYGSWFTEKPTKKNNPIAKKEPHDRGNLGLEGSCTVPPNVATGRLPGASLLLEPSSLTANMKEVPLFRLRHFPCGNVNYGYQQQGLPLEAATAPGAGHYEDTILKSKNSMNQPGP
T2 sequence (O60674 whole entry): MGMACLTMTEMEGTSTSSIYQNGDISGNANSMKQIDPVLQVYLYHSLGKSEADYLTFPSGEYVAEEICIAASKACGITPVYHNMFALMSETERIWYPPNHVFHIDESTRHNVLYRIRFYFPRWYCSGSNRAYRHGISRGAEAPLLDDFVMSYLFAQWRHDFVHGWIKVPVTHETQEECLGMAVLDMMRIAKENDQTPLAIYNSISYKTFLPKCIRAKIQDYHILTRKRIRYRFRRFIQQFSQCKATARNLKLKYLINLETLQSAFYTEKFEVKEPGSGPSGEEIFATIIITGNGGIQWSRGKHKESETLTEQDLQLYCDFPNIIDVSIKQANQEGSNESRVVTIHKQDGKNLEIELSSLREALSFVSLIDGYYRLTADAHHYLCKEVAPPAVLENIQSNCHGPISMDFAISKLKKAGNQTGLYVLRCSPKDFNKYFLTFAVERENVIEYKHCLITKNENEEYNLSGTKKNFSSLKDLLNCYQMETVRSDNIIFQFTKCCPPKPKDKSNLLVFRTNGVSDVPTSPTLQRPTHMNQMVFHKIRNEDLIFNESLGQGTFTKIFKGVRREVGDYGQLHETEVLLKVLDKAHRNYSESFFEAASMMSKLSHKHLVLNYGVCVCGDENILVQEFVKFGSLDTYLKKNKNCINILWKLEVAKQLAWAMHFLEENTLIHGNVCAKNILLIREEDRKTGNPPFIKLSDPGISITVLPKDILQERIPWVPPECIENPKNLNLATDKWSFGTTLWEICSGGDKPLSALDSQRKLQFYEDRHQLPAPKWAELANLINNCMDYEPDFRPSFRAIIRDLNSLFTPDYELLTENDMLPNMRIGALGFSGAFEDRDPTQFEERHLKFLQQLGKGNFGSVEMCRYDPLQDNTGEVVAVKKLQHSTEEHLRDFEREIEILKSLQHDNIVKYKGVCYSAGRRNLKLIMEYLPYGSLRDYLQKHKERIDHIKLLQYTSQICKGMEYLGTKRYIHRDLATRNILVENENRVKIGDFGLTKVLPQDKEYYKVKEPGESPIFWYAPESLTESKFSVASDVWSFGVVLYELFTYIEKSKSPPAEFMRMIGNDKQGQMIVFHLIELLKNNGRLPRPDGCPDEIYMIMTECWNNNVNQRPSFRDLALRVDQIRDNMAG

SMILES | pIC50 (ALK; ALK Kinase Inhibition) | pIC50 (JAK2; JAK2 Kinase Inhibition) | pIC50 (ALK; [1]) | pIC50 (JAK2; [2])
COc1cc(Nc2ncc3ccc(-c4ccc(S(C)(=O)=O)cc4)n3n2)cc(OC)c1OC [Example 162, [7-(4-Methanesulfonyl-phenyl)-pyrrolo[2,1-f][1,2,4]triazin-2-yl]-(3,4,5-trimethoxy-phenyl)-amine] | 6.00 to 7.00 | > 7.00 | – | –
COc1ccccc1-c1ccc2cnc(Nc3ccc4[nH]ccc4c3)nn12 [Example 170, (1H-Indol-5-yl)-[7-(2-methoxy-phenyl)-pyrrolo[2,1-f][1,2,4]triazin-2-yl]-amine] | 5.00 to 6.00 | > 7.00 | – | –
COc1ccc(-c2ccc3cnc(Nc4ccc5c(c4)N(S(C)(=O)=O)CCC5)nn23)cn1 [Example 1061, (1-Methanesulfonyl-1,2,3,4-tetrahydro-quinolin-7-yl)-[7-(6-methoxy-pyridin-3-yl)-pyrrolo[2,1-f][1,2,4]triazin-2-yl]-amine] | – | – | < 5.00 | > 7.00
CN1CCN(c2cccc(Nc3ncc4ccc(-c5cccc(Cl)c5)n4n3)c2)CC1 [Example 161, [7-(3-Chloro-phenyl)-pyrrolo[2,1-f][1,2,4]triazin-2-yl]-[3-(4-methyl-piperazin-1-yl)-phenyl]-amine] | 6.00 to 7.00 | > 7.00 | – | –
COc1ccc(Cl)cc1-c1ccc2cnc(Nc3ccc(N4CCOCC4)cc3)nn12 [Example 3, [7-(5-Chloro-2-methoxy-phenyl)-pyrrolo[2,1-f][1,2,4]triazin-2-yl]-(4-morpholin-4-yl-phenyl)-amine] | 6.00 to 7.00 | > 7.00 | – | –
CN(C)C1CCC(c2ccc(Nc3ncc4ccc(-c5cccc(S(=O)(=O)NC(C)(C)C)c5)n4n3)cc2)CC1 (stereo not shown) [Example 567, N-tert-Butyl-3-{2-[4-(4-dimethylamino-cyclohexyl)-phenylamino]-pyrrolo[2,1-f][1,2,4]triazin-7-yl}-benzenesulfonamide] | – | – | 6.00 to 7.00 | > 7.00
COc1cc(N2CCN(C[C@H](C)O)CC2)ccc1Nc1ncc2ccc(-c3cc(Cl)ccc3OC)n2n1 [Example 755, (S)-1-(4-{4-[7-(5-Chloro-2-methoxy-phenyl)-pyrrolo[2,1-f][1,2,4]triazin-2-ylamino]-3-methoxy-phenyl}-piperazin-1-yl)-propan-2-ol] | – | – | > 7.00 | > 7.00
CS(=O)(=O)c1ccc(-c2ccc3cnc(Nc4cccc(N5CCN(CCO)CC5)c4)nn23)cc1 [Example 181, 2-(4-{3-[7-(4-Methanesulfonyl-phenyl)-pyrrolo[2,1-f][1,2,4]triazin-2-ylamino]-phenyl}-piperazin-1-yl)-ethanol] | 6.00 to 7.00 | > 7.00 | – | –
Fc1ccc(Nc2ncc3ccc(-c4cccnc4)n3n2)cc1N1CCOCC1 [Example 391, (4-Fluoro-3-morpholin-4-yl-phenyl)-(7-pyridin-3-yl-pyrrolo[2,1-f][1,2,4]triazin-2-yl)-amine] | 5.00 to 6.00 | > 7.00 | – | –
COc1ccc(-c2ccc3cnc(Nc4ccc5c(c4)N(C)CCO5)nn23)cn1 [Example 644, [7-(6-Methoxy-pyridin-3-yl)-pyrrolo[2,1-f][1,2,4]triazin-2-yl]-(4-methyl-3,4-dihydro-2H-benzo[1,4]oxazin-6-yl)-amine] | – | – | 5.00 to 6.00 | > 7.00
COc1ccc(-c2ccc3cnc(Nc4ccc(OC)c(N5CCOCC5)c4)nn23)cn1 [Example 397, (4-Methoxy-3-morpholin-4-yl-phenyl)-[7-(6-methoxy-pyridin-3-yl)-pyrrolo[2,1-f][1,2,4]triazin-2-yl]-amine] | 6.00 to 7.00 | > 7.00 | – | –
COc1ccc(-c2ccc3cnc(Nc4cc5c(cc4F)CCC(=O)N5)nn23)cn1 [Example 983, 6-Fluoro-7-[7-(6-methoxy-pyridin-3-yl)-pyrrolo[2,1-f][1,2,4]triazin-2-ylamino]-3,4-dihydro-1H-quinolin-2-one] | – | – | < 5.00 | > 7.00

The next lines start with the values.

pIC50 (ALK; ALK Kinase Inhibition) | pIC50 (JAK2; JAK2 Kinase Inhibition) | pIC50 (ALK; [1]) | pIC50 (JAK2; [2]) | SMILES
– | – | 6.00 to 7.00 | > 7.00 | CN(c1ccccc1-c1ccc2cnc(Nc3ccc4c(c3)N(S(C)(=O)=O)CCC4)nn12)S(C)(=O)=O [Example 1062, N-{2-[2-(1-Methanesulfonyl-1,2,3,4-tetrahydro-quinolin-7-ylamino)-pyrrolo[2,1-f][1,2,4]triazin-7-yl]-phenyl}-N-methyl-methanesulfonamide]
5.00 to 6.00 | > 7.00 | – | – | CC(C)(C)NS(=O)(=O)c1cccc(-c2ccc3cnc(Nc4ccc(Cl)cc4)nn23)c1 [Example 1400, N-tert-Butyl-3-[2-(4-chloro-phenylamino)-pyrrolo[2,1-f][1,2,4]triazin-7-yl]-benzenesulfonamide]
5.00 to 6.00 | > 7.00 | – | – | COc1ccc(-c2ccc3cnc(Nc4ccc(CN5CCCC5)cc4)nn23)cn1 [Example 1405, [7-(6-Methoxy-pyridin-3-yl)-pyrrolo[2,1-f][1,2,4]triazin-2-yl]-(4-pyrrolidin-1-ylmethyl-phenyl)-amine]
> 7.00 | > 7.00 | – | – | COc1cc(N2CCCC(N3CCN(C)CC3)C2)ccc1Nc1ncc2ccc(-c3ccccc3OC)n2n1 (single isomer, unassigned) [Example 1441, {2-Methoxy-4-[3-(4-methyl-piperazin-1-yl)-piperidin-1-yl]-phenyl}-[7-(2-methoxy-phenyl)-pyrrolo[2,1-f][1,2,4]triazin-2-yl]-amine]
6.00 to 7.00 | > 7.00 | – | – | CC(=O)Nc1cc(Nc2ncc3ccc(-c4cccc(S(=O)(=O)NC(C)(C)C)c4)n3n2)ccc1C(C)(C)C [Example 1387, N-{2-tert-Butyl-5-[7-(3-tert-butylsulfamoyl-phenyl)-pyrrolo[2,1-f][1,2,4]triazin-2-ylamino]-phenyl}-acetamide]
– | – | > 7.00 | 5.00 to 6.00 | COc1cc([C@H]2CC[C@@H](N3CCOCC3)CC2)ccc1Nc1ncc2ccc(-c3ccccc3N(C)S(C)(=O)=O)n2n1 [Example 1249, N-{2-[2-({2-methoxy-4-[cis-4-(morpholin-4-yl)cyclohexyl]phenyl}amino)pyrrolo[2,1-f][1,2,4]triazin-7-yl]phenyl}-N-methylmethanesulfonamide]
– | – | < 5.00 | > 7.00 | CCS(=O)(=O)c1cccc(-c2ccc3cnc(Nc4ccc5nc(C(F)(F)F)[nH]c5c4)nn23)c1 [Example 1313, [7-(3-Ethanesulfonyl-phenyl)-pyrrolo[2,1-f][1,2,4]triazin-2-yl]-(2-trifluoromethyl-3H-benzimidazol-5-yl)-amine]
– | – | 6.00 to 7.00 | > 7.00 | CN1CCN(c2ccc(Nc3ncc4ccc(-c5ccc(N)nc5)n4n3)cc2)CC1 [Example 1118, [7-(6-Amino-pyridin-3-yl)-pyrrolo[2,1-f][1,2,4]triazin-2-yl]-[4-(4-methyl-piperazin-1-yl)-phenyl]-amine]
– | – | 6.00 to 7.00 | > 7.00 | COc1ccccc1-c1ccc2cnc(Nc3ccc(N4CCN(C)CC4)cn3)nn12 [Example 1177, [7-(2-Methoxy-phenyl)-pyrrolo[2,1-f][1,2,4]triazin-2-yl]-[5-(4-methyl-piperazin-1-yl)-pyridin-2-yl]-amine]
– | – | > 7.00 | > 7.00 | OCCN1CCN(c2ccc(Nc3ncc4ccc(-c5cccc(Cl)c5)n4n3)cc2)CC1 [Example 1134, 2-(4-{4-[7-(3-Chloro-phenyl)-pyrrolo[2,1-f][1,2,4]triazin-2-ylamino]-phenyl}-piperazin-1-yl)-ethanol]
> 7.00 | 6.00 to 7.00 | – | – | COc1cc2c(cc1Nc1ncc3ccc(-c4ccccc4OC)n3n1)C(=O)CC1(CCN(C)CC1)O2 [Example 1491]
